Results: ChEMBL document CHEMBL4831544, “Discovery of IHMT-EZH2-115 as a Potent and Selective Enhancer of Zeste Homolog 2 (EZH2) Inhibitor for the Treatment of B-Cell Lymphomas” (J Med Chem, 2021)
Calls of active or inactive are those of the source. The rule behind the calls is not given here.

Tests used:
[1] = system: Histone-lysine N-methyltransferase EZH2 (Homo sapiens), Q15910 [UNDEFINED MUTATION]; test: Inhibition of EZH2 A738T mutant (unknown origin) at 10 uM using SAM as substrate measured up to 960 mins by AlphaScreen microplate reader assay relative to control; conditions: time min <=960
[2] = system: Histone-lysine N-methyltransferase EZH2 (Homo sapiens), Q15910 [Y641F]; test: Inhibition of EZH2 Y641F mutant (unknown origin) at 10 uM using SAM as substrate measured up to 960 mins by AlphaScreen microplate reader assay relative to control; conditions: time min <=960
[3] = Half life in mouse at 1 mg/kg, iv measured up to 24 hrs by LC-MS/MS analysis; format: ADME, organism-based; conditions: in vivo
[4] = system: Histone-lysine N-methyltransferase EZH2 (Homo sapiens), Q15910 [Y641S]; test: Inhibition of EZH2 Y641S mutant (unknown origin) at 10 uM using SAM as substrate measured up to 960 mins by AlphaScreen microplate reader assay relative to control; conditions: time min <=960
[5] = molecular target: Histone-lysine N-methyltransferase NSD2 (Homo sapiens) (UniProt O96028); test: Inhibition of NSD2 (unknown origin) at 10 uM using SAM as substrate measured up to 960 mins by AlphaScreen microplate reader assay relative to control; conditions: time min <=960
[6] = Oral bioavailability in rat at 10 mg/kg; format: ADME, organism-based; conditions: in vivo
[7] = molecular target: Histone-lysine N-methyltransferase 2A (Homo sapiens) (UniProt Q03164); test: Inhibition of MLL1 (unknown origin) at 10 uM using SAM as substrate measured up to 960 mins by AlphaScreen microplate reader assay relative to control; conditions: time min <=960
[8] = AUC (0 to infinity) in mouse at 10 mg/kg, po measured up to 24 hrs by LC-MS/MS analysis; format: ADME, organism-based; set-up: route oral, dose 10 mg/kg, time <=24; conditions: in vivo
[9] = molecular target: Histone-arginine methyltransferase CARM1 (Homo sapiens) (UniProt Q86X55); test: Inhibition of PRMT4 (unknown origin) at 10 uM using SAM as substrate measured up to 960 mins by AlphaScreen microplate reader assay relative to control; conditions: time min <=960
[10] = species: Homo sapiens; test: Inhibition of EZH2 (unknown origin) interaction with EED (unknown origin) at 10 uM relative to control
[11] = system: KARPAS-422; test: Antiproliferative activity against human KARPAS-422 cells harboring EZH2 Y641N mutant assessed as inhibition of cell growth measured after 6 days by CellTiter-Glo luminescent assay; format: functional; conditions: KARPAS-422, 144 h, time 6 day
[12] = molecular target: Histone-lysine N-methyltransferase SETD7 (Homo sapiens) (UniProt Q8WTS6); test: Inhibition of SET7/9 (unknown origin) at 10 uM using SAM as substrate measured up to 960 mins by AlphaScreen microplate reader assay relative to control; conditions: time min <=960
[13] = system: Raji; test: Antiproliferative activity against human Raji cells expressing wild type EZH2 assessed as inhibition of cell growth measured after 6 days by CellTiter-Glo luminescent assay; conditions: 144 h
[14] = molecular target: Histone-lysine N-methyltransferase EZH2 (Homo sapiens) (UniProt Q15910); test: Inhibition of EZH2 (unknown origin) at 10 uM using SAM as substrate measured up to 960 mins by AlphaScreen microplate reader assay relative to control; conditions: time min <=960
[15] = Clearance in mouse at 1 mg/kg, iv measured up to 24 hrs by LC-MS/MS analysis; format: ADME, organism-based; conditions: in vivo
[16] = Toxicity in NCG mouse xenografted with human KARPAS-422 cells harboring EZH2 Y641N mutant assessed as effect on body weight at 50 to 200 mg/kg, po BID via gavage measured after 28 days; format: organism-based; conditions: in vivo, 672 h, dose 50-200 mg/kg, time 28 day
[17] = system: SU-DHL-6; test: Antiproliferative activity against human SU-DHL-6 cells harboring EZH2 Y641N mutant assessed as inhibition of cell growth measured after 6 days by CellTiter-Glo luminescent assay; format: functional; conditions: SU-DHL-6, 144 h, time 6 day
[18] = molecular target: Histone-lysine N-methyltransferase, H3 lysine-79 specific (Homo sapiens) (UniProt Q8TEK3); test: Inhibition of DOT1L (unknown origin) at 10 uM using SAM as substrate measured up to 960 mins by AlphaScreen microplate reader assay relative to control; conditions: time min <=960
[19] = Clearance in rat at 10 mg/kg, po; format: ADME, organism-based; conditions: in vivo
[20] = molecular target: Histone-lysine N-methyltransferase EHMT1 (Homo sapiens) (UniProt Q9H9B1); test: Inhibition of GLP (unknown origin) at 10 uM using SAM as substrate measured up to 960 mins by AlphaScreen microplate reader assay relative to control; conditions: time min <=960
[21] = Clearance in rat at 1 mg/kg, iv; format: ADME, organism-based; conditions: in vivo
[22] = molecular target: Protein arginine N-methyltransferase 3 (Homo sapiens) (UniProt O60678); test: Inhibition of PRMT3 (unknown origin) at 10 uM using SAM as substrate measured up to 960 mins by AlphaScreen microplate reader assay relative to control; conditions: time min <=960
[23] = AUC (0 to infinity) in mouse at 1 mg/kg, iv measured up to 24 hrs by LC-MS/MS analysis; format: ADME, organism-based; set-up: route intravenous, dose 1 mg/kg, time <=24; conditions: in vivo
[24] = system: KARPAS-422; test: Antitumor activity against human KARPAS-422 cells harboring EZH2 Y641N mutant xenografted in NCG mouse assessed as tumor growth inhibition at 100 mg/kg, po BID via gavage measured after 28 days relative to control; format: functional; conditions: KARPAS-422, po, 672 h, time 28 day, read-out: TGI
[25] = molecular target: Histone-lysine N-methyltransferase SMYD3 (Homo sapiens) (UniProt Q9H7B4); test: Inhibition of SMYD3 (unknown origin) at 10 uM using SAM as substrate measured up to 960 mins by AlphaScreen microplate reader assay relative to control; conditions: time min <=960
[26] = molecular target: Protein arginine N-methyltransferase 5 (Homo sapiens) (UniProt O14744); test: Inhibition of PRMT5 (unknown origin) at 10 uM using SAM as substrate measured up to 960 mins by AlphaScreen microplate reader assay relative to control; conditions: time min <=960
[27] = molecular target: Histone-lysine N-methyltransferase SUV39H2 (Homo sapiens) (UniProt Q9H5I1); test: Inhibition of SUV39H2 (unknown origin) at 10 uM using SAM as substrate measured up to 960 mins by AlphaScreen microplate reader assay relative to control; conditions: time min <=960
[28] = AUC (0 to infinity) in rat at 1 mg/kg, iv; format: ADME, organism-based; set-up: route intravenous, time infinity, dose 1 mg/kg; conditions: in vivo
[29] = Half life in mouse at 10 mg/kg, po measured up to 24 hrs by LC-MS/MS analysis; format: ADME, organism-based; conditions: in vivo
[30] = Apparent volume of distribution in mouse at 10 mg/kg, po measured up to 24 hrs by LC-MS/MS analysis; format: ADME, organism-based; conditions: in vivo
[31] = Apparent volume of distribution in rat at 10 mg/kg, po; format: ADME, organism-based; conditions: in vivo
[32] = system: SUD4; test: Antiproliferative activity against human SU-DHL-4 cells harboring EZH2 Y641S mutant assessed as inhibition of cell growth measured after 6 days by CellTiter-Glo luminescent assay; format: functional; conditions: SU-DHL-4, 144 h, time 6 day
[33] = system: KARPAS-422; test: Antitumor activity against human KARPAS-422 cells harboring EZH2 Y641N mutant xenografted in NCG mouse assessed as tumor regression at 200 mg/kg, po BID via gavage measured within 10 days; format: functional, organism-based; conditions: time day <10

Chain of Histone-lysine N-methyltransferase EZH2 (Homo sapiens), Q15910 [UNDEFINED MUTATION] (Q15910 whole entry, looked up, stated change not applied): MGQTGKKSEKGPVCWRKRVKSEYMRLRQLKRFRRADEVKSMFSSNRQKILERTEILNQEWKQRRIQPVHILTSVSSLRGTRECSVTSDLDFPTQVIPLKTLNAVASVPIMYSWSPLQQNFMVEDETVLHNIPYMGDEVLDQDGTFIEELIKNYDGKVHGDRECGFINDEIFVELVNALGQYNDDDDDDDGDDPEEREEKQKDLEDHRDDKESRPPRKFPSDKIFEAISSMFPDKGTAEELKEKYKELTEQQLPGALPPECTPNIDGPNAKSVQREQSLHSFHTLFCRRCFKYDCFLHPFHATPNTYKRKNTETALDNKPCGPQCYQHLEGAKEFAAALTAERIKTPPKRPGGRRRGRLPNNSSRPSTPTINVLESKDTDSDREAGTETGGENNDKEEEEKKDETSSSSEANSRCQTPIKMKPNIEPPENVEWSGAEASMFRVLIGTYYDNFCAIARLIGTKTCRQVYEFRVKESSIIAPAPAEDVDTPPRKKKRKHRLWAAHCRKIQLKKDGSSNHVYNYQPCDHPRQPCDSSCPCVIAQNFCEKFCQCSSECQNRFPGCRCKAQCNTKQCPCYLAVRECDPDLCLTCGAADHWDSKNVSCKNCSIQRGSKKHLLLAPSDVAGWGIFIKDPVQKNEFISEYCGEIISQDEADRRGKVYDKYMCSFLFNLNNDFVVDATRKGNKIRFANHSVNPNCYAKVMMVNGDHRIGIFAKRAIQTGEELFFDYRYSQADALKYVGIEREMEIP
Chain of Histone-lysine N-methyltransferase EZH2 (Homo sapiens) (Q15910 whole entry, looked up): as the sequence (Q15910 whole entry, looked up, stated change not applied) above
Chain of Histone-lysine N-methyltransferase SETD7 (Homo sapiens) (Q8WTS6 whole entry): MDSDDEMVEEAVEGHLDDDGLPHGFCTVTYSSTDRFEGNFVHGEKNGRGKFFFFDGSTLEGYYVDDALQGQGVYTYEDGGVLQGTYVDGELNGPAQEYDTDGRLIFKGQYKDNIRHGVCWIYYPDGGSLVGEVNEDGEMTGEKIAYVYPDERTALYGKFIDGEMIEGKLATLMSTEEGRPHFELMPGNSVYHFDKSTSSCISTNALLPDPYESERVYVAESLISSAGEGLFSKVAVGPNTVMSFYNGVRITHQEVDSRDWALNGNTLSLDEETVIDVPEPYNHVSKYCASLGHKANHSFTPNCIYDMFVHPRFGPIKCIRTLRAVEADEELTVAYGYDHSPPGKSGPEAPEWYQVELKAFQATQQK
Chain of Histone-lysine N-methyltransferase SUV39H2 (Homo sapiens) (Q9H5I1 whole entry): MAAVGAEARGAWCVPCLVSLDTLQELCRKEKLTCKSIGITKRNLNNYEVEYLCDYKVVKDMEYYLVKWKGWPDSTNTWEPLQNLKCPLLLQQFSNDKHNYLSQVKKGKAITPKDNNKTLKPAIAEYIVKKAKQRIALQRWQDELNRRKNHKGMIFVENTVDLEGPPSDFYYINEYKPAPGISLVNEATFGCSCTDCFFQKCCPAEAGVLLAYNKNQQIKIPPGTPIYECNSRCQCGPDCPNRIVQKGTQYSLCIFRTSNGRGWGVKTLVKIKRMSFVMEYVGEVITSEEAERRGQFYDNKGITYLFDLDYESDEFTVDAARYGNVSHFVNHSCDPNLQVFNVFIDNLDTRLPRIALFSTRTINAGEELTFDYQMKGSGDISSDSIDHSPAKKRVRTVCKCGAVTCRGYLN
Chain of Protein arginine N-methyltransferase 5 (Homo sapiens) (O14744 whole entry): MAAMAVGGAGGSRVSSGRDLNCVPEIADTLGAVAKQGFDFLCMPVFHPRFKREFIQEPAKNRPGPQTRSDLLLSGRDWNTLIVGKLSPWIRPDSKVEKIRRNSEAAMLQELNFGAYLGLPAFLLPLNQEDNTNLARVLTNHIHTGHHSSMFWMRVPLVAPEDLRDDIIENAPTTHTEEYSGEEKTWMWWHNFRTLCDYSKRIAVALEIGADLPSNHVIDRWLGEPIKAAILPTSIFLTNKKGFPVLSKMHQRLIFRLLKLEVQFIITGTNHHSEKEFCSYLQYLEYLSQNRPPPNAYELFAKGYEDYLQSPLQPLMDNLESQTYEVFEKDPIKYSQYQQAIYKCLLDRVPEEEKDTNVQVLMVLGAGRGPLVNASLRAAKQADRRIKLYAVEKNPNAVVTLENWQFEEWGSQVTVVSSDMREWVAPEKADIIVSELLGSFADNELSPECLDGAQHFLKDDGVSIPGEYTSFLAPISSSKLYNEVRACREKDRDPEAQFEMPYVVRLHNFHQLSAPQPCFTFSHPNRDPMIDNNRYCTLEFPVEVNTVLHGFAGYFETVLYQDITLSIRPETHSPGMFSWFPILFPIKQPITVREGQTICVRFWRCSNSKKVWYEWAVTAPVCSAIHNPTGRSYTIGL
Chain of Histone-arginine methyltransferase CARM1 (Homo sapiens) (Q86X55 whole entry): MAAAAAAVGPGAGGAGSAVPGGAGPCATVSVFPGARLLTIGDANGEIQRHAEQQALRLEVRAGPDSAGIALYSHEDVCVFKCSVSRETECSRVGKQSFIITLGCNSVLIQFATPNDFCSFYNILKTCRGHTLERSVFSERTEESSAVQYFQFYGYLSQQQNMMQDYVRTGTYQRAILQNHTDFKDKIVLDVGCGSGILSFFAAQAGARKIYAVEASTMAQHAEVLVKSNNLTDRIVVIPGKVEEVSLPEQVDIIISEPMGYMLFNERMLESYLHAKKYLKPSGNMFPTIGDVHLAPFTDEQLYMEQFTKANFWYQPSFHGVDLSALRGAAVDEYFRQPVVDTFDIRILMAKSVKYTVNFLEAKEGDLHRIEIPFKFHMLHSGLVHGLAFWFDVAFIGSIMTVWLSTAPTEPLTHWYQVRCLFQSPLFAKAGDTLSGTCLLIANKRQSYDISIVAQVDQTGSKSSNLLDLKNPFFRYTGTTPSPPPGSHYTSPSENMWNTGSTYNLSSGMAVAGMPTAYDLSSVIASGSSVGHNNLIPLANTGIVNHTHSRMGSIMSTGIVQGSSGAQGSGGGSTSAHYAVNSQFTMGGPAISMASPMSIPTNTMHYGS
Chain of Histone-lysine N-methyltransferase SMYD3 (Homo sapiens) (Q9H7B4 whole entry): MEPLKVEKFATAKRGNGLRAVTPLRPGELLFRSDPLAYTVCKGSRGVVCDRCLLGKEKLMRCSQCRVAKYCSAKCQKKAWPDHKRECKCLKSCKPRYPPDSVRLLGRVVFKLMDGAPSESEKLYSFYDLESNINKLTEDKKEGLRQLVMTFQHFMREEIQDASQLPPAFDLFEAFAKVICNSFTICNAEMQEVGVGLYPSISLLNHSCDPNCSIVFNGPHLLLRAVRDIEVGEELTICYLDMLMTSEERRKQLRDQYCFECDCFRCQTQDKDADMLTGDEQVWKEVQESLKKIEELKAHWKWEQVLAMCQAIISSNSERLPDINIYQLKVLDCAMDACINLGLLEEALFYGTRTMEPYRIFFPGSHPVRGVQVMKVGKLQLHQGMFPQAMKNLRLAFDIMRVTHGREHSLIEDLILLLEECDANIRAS
Chain of Histone-lysine N-methyltransferase NSD2 (Homo sapiens) (O96028 whole entry): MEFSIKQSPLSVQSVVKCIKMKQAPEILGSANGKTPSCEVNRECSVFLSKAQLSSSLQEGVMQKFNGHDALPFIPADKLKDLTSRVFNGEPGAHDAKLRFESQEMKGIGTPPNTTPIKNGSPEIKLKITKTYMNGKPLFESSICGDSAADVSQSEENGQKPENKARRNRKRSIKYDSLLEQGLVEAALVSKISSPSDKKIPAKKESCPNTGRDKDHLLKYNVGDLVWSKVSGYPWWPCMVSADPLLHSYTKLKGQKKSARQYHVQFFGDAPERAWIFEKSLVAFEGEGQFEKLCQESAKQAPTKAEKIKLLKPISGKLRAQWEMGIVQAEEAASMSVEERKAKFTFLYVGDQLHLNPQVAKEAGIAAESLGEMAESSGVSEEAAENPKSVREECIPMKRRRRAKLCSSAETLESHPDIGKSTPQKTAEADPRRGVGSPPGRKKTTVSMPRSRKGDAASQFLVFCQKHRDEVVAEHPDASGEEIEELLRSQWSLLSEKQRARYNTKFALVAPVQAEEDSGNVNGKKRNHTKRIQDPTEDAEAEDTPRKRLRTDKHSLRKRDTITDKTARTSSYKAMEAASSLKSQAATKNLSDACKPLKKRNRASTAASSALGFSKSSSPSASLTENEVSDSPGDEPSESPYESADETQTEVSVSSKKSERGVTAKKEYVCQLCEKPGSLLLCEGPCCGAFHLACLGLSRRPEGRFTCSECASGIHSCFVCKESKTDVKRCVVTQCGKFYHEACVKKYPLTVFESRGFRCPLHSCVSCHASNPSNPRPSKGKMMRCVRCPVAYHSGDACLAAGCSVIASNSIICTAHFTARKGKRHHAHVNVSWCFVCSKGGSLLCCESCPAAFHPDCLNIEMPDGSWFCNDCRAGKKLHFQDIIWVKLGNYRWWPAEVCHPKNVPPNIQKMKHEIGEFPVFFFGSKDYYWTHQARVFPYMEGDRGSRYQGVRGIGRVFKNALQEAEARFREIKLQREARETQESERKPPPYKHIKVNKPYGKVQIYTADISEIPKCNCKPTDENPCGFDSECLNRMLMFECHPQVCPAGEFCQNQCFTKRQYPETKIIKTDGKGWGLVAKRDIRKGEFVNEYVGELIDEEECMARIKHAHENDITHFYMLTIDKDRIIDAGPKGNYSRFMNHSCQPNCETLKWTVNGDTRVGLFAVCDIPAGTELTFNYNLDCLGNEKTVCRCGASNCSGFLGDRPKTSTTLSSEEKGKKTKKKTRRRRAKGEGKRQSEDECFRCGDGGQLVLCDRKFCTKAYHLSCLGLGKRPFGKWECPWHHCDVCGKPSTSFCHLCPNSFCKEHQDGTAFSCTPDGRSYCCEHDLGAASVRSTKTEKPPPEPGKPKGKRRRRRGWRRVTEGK
Chain of Histone-lysine N-methyltransferase EZH2 (Homo sapiens), Q15910 [Y641F] (Q15910 whole entry Y641F, looked up): as the sequence (Q15910 whole entry, looked up, stated change not applied) above, with Y641F counted along it
Chain of Histone-lysine N-methyltransferase EZH2 (Homo sapiens), Q15910 [Y641S] (Q15910 whole entry Y641S): as the sequence (Q15910 whole entry, looked up, stated change not applied) above, with Y641S counted along it

`CCN(C(=O)C1CC1)c1cc(-c2ccc(N3CCN(CC4CC4)CC3)nc2C)cc(C(=O)NCc2c(C)cc(C)[nH]c2=O)c1C` gave an inhibition [1] of 100%, an inhibition [2] of 99% and a t1/2 [3] of 5.38 h. The inhibition [4] was 90%, the inhibition [5] was 10% and the bioavailability [6] was 31%. It also gave an inhibition [7] of 12%, an AUC(0-inf) [8] of 1000 ng·h/mL and an inhibition [9] of 0%. For the same molecule, the inhibition [10] was 21%, the GI50 [11] was 50 nM and the inhibition [12] was 3%. It also gave a GI50 [13] greater than 10 µM, an inhibition [14] of 100% and a CL [15] of 2685 mL/h/kg. For the same molecule, the Activity [16] was “Non-Toxic”, the GI50 [17] was 1100 nM and the inhibition [18] was 0%. For the same molecule, the CL/F [19] was 291 mL/min/kg, the inhibition [20] was 0% and the clearance [21] was 85.5 mL/min/kg. For the same molecule, the inhibition [22] was 0%, the AUC(0-inf) [23] was 372 ng·h/mL and the inhibition in vivo at 100 mg/kg [24] was 70.1%. It also gave an inhibition [25] of 16%, an inhibition [26] of 0% and an inhibition [27] of 8%. The AUC(0-inf) [28] was 195 ng·h/mL, the t1/2 [29] was 1.3 h and the Vz [30] was 18638 mL/kg. The Vz [31] was 36559 mL/kg, the GI50 [32] was 3.87 µM and the Activity [33] was “Active”.
